Experimental findings from article PMC9023165, “Antioxidant, Enzyme Inhibitory, and Molecular Docking Approaches to the Antidiabetic Potentials of Bioactive Compounds from Persicaria hydropiper L” (Evidence-based Complementary and Alternative Medicine : eCAM, 2022) are described below.

≈ marks a conversion by molar mass, not a printed value. Like-named read-outs stand apart in the source and are kept apart here.

One test is described as follows: DPPH antiradicals assay. The procedure:
DPPH antiradicals study was conducted in accordance with our previously published protocol. Initially, 0.1% methanolic-DPPH solution was made and its 100 µL was mixed with same volume (100 µL) of test samples in 96-well plates, followed by incubation for about thirty min in a dark place 25 ± 3°C. […] Percent scavenging was estimated as follows:(1) % scavenging=A0−A1/A0×100.
(Loss of DPPH colour is used to gauge radical scavenging.)

The next test can be described thus: ABTS antiradicals assay. Here is the method: ABTS antiradicals' study was performed following our earlier reported protocol. For preparation of ABTS solution, 192 mg of ABTS salt was mixed in distilled water with subsequent transfer to fifty-milliliter flask and volume adjustments. Thereafter, 1 mL of the previous solution was added to 17 µL of 140 mM potassium persulphate and the mixture was left in the dark for 24 hours. Subsequently, 1 mL of the reaction mixture was diluted to 50 mL using methanol to obtain the final ABTS dilution used in the assay. Consequently, 190-microliter ABTS solution was added to 10 µL sample solutions and in 96-well plates and were incubated for 2 hrs in dark place at room temperature. After the incubation, decline in color intensity of ABTS was measured at 734 nm via microplate reader. […] Percent ABTS scavenging was determined using equation:(2) %ABTS scavenging=Control absorbance−Sample absorbance/Control absorbance×100.

In the next test the target is α-glucosidase enzyme (Saccharomyces cerevisiae, UniProt P53341). In words: α-glucosidase inhibition assay. The class given is biochemical.
The next test concerns the target T1, α-amylase enzyme (Sus scrofa, UniProt P00690).
T1 sequence (P00690 16-511): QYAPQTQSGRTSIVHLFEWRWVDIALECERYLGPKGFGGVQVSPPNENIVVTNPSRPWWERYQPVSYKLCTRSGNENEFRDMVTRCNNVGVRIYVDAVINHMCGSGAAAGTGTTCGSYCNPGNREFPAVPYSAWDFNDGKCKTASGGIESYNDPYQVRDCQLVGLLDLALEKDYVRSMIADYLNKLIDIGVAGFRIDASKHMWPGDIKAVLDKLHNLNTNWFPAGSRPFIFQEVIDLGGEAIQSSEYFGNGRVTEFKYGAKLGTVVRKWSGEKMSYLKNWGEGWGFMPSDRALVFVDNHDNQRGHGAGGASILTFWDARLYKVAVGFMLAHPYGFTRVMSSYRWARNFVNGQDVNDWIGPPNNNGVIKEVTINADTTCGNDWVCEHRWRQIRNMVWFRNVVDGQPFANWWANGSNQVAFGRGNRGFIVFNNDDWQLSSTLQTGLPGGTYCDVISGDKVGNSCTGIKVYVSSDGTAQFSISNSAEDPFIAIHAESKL
The test is described as follows: α-amylase inhibition assay. The class given is biochemical. The note with it: Mean ± SEM. Here is the method:
Using this assay, a previously reported protocol was followed. […] Subsequently, 100 µL of 0.5 mg·mL^−1α-amylase solution was added to the mixture and again incubated for 10 min at 25°C. Reaction was stopped via the addition of 200 µL of dinitrosalicylic acid was added and incubated for an additional 5 min in boiling water bath and allowed to cool again. Finally, 50 µL solutions was transferred to 96-well microplate reader and further diluted to 200 µL via the addition of distilled water. Absorbencies were recorded at 540 nm and percent inhibitions were calculated using the equation(4) % Inhibition=1−Δ A Samples/Δ A Control×100.

Sequence of α-glucosidase enzyme (P53341 whole entry): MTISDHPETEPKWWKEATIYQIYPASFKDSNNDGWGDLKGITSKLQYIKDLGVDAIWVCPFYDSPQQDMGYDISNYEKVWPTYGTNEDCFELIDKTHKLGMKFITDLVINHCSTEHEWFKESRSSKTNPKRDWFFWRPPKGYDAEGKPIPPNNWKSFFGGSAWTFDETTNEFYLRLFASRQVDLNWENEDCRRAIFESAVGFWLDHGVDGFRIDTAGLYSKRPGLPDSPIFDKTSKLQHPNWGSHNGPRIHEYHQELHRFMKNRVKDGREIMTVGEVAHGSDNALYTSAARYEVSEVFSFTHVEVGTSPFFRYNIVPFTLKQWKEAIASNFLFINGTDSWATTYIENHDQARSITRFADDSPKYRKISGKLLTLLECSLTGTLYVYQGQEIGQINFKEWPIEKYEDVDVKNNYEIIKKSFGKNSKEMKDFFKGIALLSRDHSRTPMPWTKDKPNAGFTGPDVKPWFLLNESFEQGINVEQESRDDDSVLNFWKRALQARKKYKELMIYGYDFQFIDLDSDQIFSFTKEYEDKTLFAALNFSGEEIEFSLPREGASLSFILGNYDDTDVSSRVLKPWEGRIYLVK
Procedure for α-glucosidase enzyme: For α-glucosidase inhibition assay, 50 µL solution containing 0.5 U·mL^−1 was added to 50 µL phosphate buffer (6.8 pH) and was added to various concentrations of test samples. The resultant mixture was properly mixed and stored at 37°C for fifteen min. After incubation, 100 µL (3 mM) pNPG solution was added to it. […] Absorption was measured at 405 nm using 96-well microplate reader. Absorption of mixture without addition of test samples was used as control and without substrate was used as blank. Percent inhibitions were calculated using the formula(3) % Inhibition=1−absorbance of sample−absorbance of blank/absorbance of control×100.

For `CC(=O)OC1COC(=O)C1C` (stereo not drawn) [Ph-3, 4-methyl-5-oxo-tetrahydrofuran-3-yl acetate], the “IC50 DPPH scavenging” value in “DPPH antiradicals assay” was 550 µg/mL. Also, the “% scavenging effect against DPPH radicals” value (“% scavenging effect” for short) is on record as 9.2% in “DPPH antiradicals assay” (31.25 µg·mL^−1); 18.5% in the test “DPPH antiradicals assay” (62.50 µg·mL^−1); 29.66% in “DPPH antiradicals assay” (125 µg·mL^−1); 33.33% in the test “DPPH antiradicals assay” (250 µg·mL^−1); 42% in the test “DPPH antiradicals assay” (500 µg·mL^−1); 56% in “DPPH antiradicals assay” (1000 µg·mL^−1). Besides, in the test “ABTS antiradicals assay”, the “IC50 against ABTS radicals” value is 320 µg/mL. Moreover, the “% inhibition against ABTS radicals” value in “ABTS antiradicals assay” (1000 µg·mL^−1) amounted to 67.16%.
For the molecule `C[C@H]1O[C@H](O[C@H]2[C@H](O)[C@@H](O)[C@@H](O[C@H]3[C@H](O)[C@@H](O)C(O)O[C@@H]3CO)O[C@@H]2CO)[C@H](O)[C@@H](O)[C@@H]1N[C@H]1C=C(CO)[C@@H](O)[C@H](O)[C@H]1O` (stereo partly drawn) [Acarbose], the “α-Glucosidase inhibition assay % enzyme inhibition” value at α-glucosidase enzyme is on record as 89.42 ± 0.55 77.52 ± 0.62 71. 36 ± 0.49 62.39 ± 0.49 55.47 ± 0.52%. Besides, the “α-Amylase Inhibition assay % enzyme inhibition” value was 59.36 ± 0.57% on α-amylase enzyme (62.50 µg·mL^−1); 65.48 ± 0.74% at α-amylase enzyme (125 µg·mL^−1); 73.62 ± 0.40% on α-amylase enzyme (250 µg·mL^−1); 78.60 ± 0.46% on α-amylase enzyme (500 µg·mL^−1); 85.72 ± 0.66% at α-amylase enzyme (1000 µg·mL^−1).
With `O=C1O[C@H]([C@@H](O)CO)C(O)=C1O` [ascorbic acid, reference compound], the “IC50 DPPH scavenging” value in “DPPH antiradicals assay” was determined as 40 µg/mL (≈ 227 µM). The “% scavenging effect” value in the test “DPPH antiradicals assay” (31.25 µg·mL^−1) is listed as 45%; in the test “DPPH antiradicals assay” (62.50 µg·mL^−1), 56.83%; in the test “DPPH antiradicals assay” (125 µg·mL^−1), 62.33%; in “DPPH antiradicals assay” (250 µg·mL^−1), 72.85%; in “DPPH antiradicals assay” (500 µg·mL^−1), 83.33%; in “DPPH antiradicals assay” (1000 µg·mL^−1), 91.80%.
Take `COC(=O)c1ccc(O)c(OC)c1` [Ph-4, methyl 4-hydroxy-3-methoxybenzoate]: the “IC50 DPPH scavenging” value in “DPPH antiradicals assay” is 650 µg/mL (≈ 3570 µM). Moreover, the “% scavenging effect” value in the test “DPPH antiradicals assay” (31.25 µg·mL^−1) is given as 7.6%; in “DPPH antiradicals assay” (62.50 µg·mL^−1) it was 12.06%; in “DPPH antiradicals assay” (125 µg·mL^−1), 19.85%; in “DPPH antiradicals assay” (250 µg·mL^−1) it was 27.48%; in “DPPH antiradicals assay” (500 µg·mL^−1) it was 48.73%; in “DPPH antiradicals assay” (1000 µg·mL^−1) it was 60.26%. Moreover, in “ABTS antiradicals assay”, the “IC50 against ABTS radicals” value was found to be 610 µg/mL (≈ 3350 µM). In addition, the “% inhibition against ABTS radicals” value in “ABTS antiradicals assay” (1000 µg·mL^−1) is 53.66%.
Regarding `CCOc1cc(C(C)=O)c2cc(OC)ccc2c1` [Ph-5, 1-(3-ethoxy-7-methoxynaphthalen-1-yl)ethanone], the “IC50 DPPH scavenging” value in the test “DPPH antiradicals assay” came to 390 µg/mL (≈ 1600 µM). Besides, the “% scavenging effect” value in “DPPH antiradicals assay” (1000 µg·mL^−1) is reported as 58.33%. In addition, the results for the “IC50 against ABTS radicals” value in the test “ABTS antiradicals assay” and in “ABTS antiradicals assay” (in Figure 3) were 350 µg/mL (≈ 1430 µM) and 390 µg/mL (≈ 1600 µM), respectively. Moreover, the “% inhibition against ABTS radicals” value in “ABTS antiradicals assay” (1000 µg·mL^−1) stood at 69.16%.
For `CCC(/C=C/C(C)C1CCC2C3CC=C4CC(O)CCC4(C)C3CCC12C)C(C)C` (stereo not drawn) [Ph-2, (E)-17-(5-ethyl-6-methylhept-3-en-2-yl)-10,13-dimethyl-2,3,4,7,8,9,10,11,12,13,14,15,16,17-tetradecahydro-1H-cyclopenta[a]phenanthren-3-ol], in the test “DPPH antiradicals assay”, the “IC50 DPPH scavenging” value came out at 200 µg/mL (≈ 485 µM). Also, the “% scavenging effect” value in “DPPH antiradicals assay” (31.25 µg·mL^−1) turned out to be 11.83%; in “DPPH antiradicals assay” (62.50 µg·mL^−1), 21.33%; in the test “DPPH antiradicals assay” (125 µg·mL^−1), 34.16%; in “DPPH antiradicals assay” (250 µg·mL^−1), 59.66%; in “DPPH antiradicals assay” (500 µg·mL^−1), 68%; in the test “DPPH antiradicals assay” (1000 µg·mL^−1), 79.33%. The “IC50 against ABTS radicals” value in “ABTS antiradicals assay” was determined as 160 µg/mL (≈ 388 µM). Moreover, the “% inhibition against ABTS radicals” value in the test “ABTS antiradicals assay” (31.25 µg·mL^−1) is reported as 17.44%; in the test “ABTS antiradicals assay” (62.5 µg·mL^−1), 27.88%; in the test “ABTS antiradicals assay” (125 µg·mL^−1), 42.89%; in the test “ABTS antiradicals assay” (250 µg·mL^−1), 60.56%; in the test “ABTS antiradicals assay” (500 µg·mL^−1), 72.68%; in “ABTS antiradicals assay” (1000 µg·mL^−1) it was 80.63%.
Consider `COc1cc(/C=C/c2ccccc2)oc(=O)c1` [Ph-6, (E)-4-methoxy-6-styryl-2H-pyran-2-one], for which the “IC50 DPPH scavenging” value in the test “DPPH antiradicals assay” is 910 µg/mL (≈ 3990 µM). The “% scavenging effect” value in the test “DPPH antiradicals assay” (1000 µg·mL^−1) is on record as 44%. Also, the “IC50 against ABTS radicals” value in the test “ABTS antiradicals assay” was determined as 550 µg/mL (≈ 2410 µM). The “% inhibition against ABTS radicals” value in the test “ABTS antiradicals assay” (1000 µg·mL^−1) was determined as 61%.
